Assay results reported in patent US20190233884A1 (University of Southern California, priority 2016, published 2019).

System: patients with refractory metastatic colorectal cancer (mCRC)
Experiment: PFS, OS and disease control in the training (evaluation) cohort of refractory mCRC patients receiving TAS-102 (n=52, Japan), by baseline characteristics, SNP genotype and toxicity
Type: in vivo, human
Details: for PFS HR (95% CI) ‡ / OS HR (95% CI)‡: multivariable; for HR for OS / HR for PFS / Disease Control Rate PD / Disease Control Rate SD / Overall Survival Median, months (95% CI) / Progression-free Survival Median, months (95% CI) / Overall Survival HR (95% CI) multivariate / Overall Survival HR (95% CI) univariate / Progression-free Survival HR (95% CI) multivariate / Progression-free Survival HR (95% CI) univariate / OS / PFS: training cohort
Protocol: All patients underwent the treatment in salvage-line setting. […]
(§1) Genomic DNA was extracted from peripheral whole blood in patients of all cohorts using the QIAmp Kit (Qiagen, Valencia, Calif., USA) according to the manufacturer's protocol (www.qiagen.com). The candidate SNPs were genotyped using PCR-based direct DNA sequence analysis by ABI 3100A Capillary Genetic Analyzer and Sequencing Scanner v1.0 (Applied Biosystems). Amplification of extracted DNA was carried out using both forward and reverse primers for each gene polymorphism as shown in Table 1. […] The investigators analyzing SNPs were blinded to the clinical data of the study patients.
The primary endpoint in this study was progression-free survival (PFS), and the secondary endpoints were overall survival (OS) and disease control rate (DCR). PFS was calculated from the date of starting treatment to the first observation of disease progression or death from any cause. If a patient had no disease progression or death, PFS was censored at the date of last follow up. OS was calculated from the date of starting treatment until the date of death from any cause or the date of the last follow-up, at which point OS was censored. The disease control rate (DCR) was defined as the proportion of patients who achieved a stable disease (SD) or […] according to RECISTv1.1. Chi-square test was used to examine the difference in baseline patient characteristics among the three cohorts. Allelic distribution of all SNPs by ethnicity for deviation from Hardy-Weinberg equilibrium and the allelic frequencies of SNPs were tested using the Chi-square tests with one degree of freedom. The associations between candidate SNPs and disease control, and toxicities were examined using contingency tables and Fisher's exact test. The associations of SNPs with PFS and OS were analysed using Kaplan-Meier curves and the log-rank test. Because the true mode of inheritance of candidate SNPs was not established yet, a codominant or dominant genetic model if appropriate was considered.
All patients underwent the treatment in salvage-line setting. […] In all patients, adverse events were graded according to the Common Terminology Criteria for Adverse Events, version 4.0. […]
as §1, with “tested” for “genotyped”, “Biosystems).” for “Biosystems). Amplification of extracted DNA was carried out using both forward and reverse primers for each gene polymorphism as shown in Table 1.”, “data.” for “data of the study patients.”
The primary endpoint in this study was progression-free survival (PFS), and the secondary endpoints were overall survival (OS) and disease control rate (DCR).

[1] = p21 rs1801270 Any C vs A/A, univariate
[2] = p21 rs1801270 C/C vs A/A, univariate
[3] = p53 rs1042522 Any G vs C/C, univariate
[4] = p53 rs1042522 C/G vs C/C, univariate
[5] = p53 rs1042522 G/G vs C/C, univariate
[6] = MATE1/OCT2 combination Good vs Poor, univariate
[7] = MATE1/OCT2 combination, multivariable adjusted for liver metastases and adjuvant history
[8] = MATE1 rs2289669/OCT2 rs316019 combination, Good category
[9] = MATE1 rs2289669/OCT2 rs316019 combination, Poor category
[10] = MATE1 rs2289669 G/A vs G/G, univariate
[11] = OCT2 rs316019 C/A and A/A combined vs C/C

Substance: Trifluridine/tipiracil [TAS-102]
- PFS HR (95% CI) ‡ (p21 rs1801270 Any C vs A/A): 0.74 (0.37, 1.49)
- OS HR (95% CI)† [1]: 0.64 (0.27, 1.56)
- PFS HR (95% CI) † [1]: 0.88 (0.44, 1.74)
- OS median, months (95% CI) (p21 rs1801270 C/C): 6.3 (3.1, 10.7) months
- PFS median, months (95% CI) (p21 rs1801270 C/C): 2.7 (1.6, 4.6) months
- OS HR (95% CI)‡ (p21 rs1801270 C/C vs A/A): 0.72 (0.24, 2.15)
- PFS HR (95% CI) ‡ (p21 rs1801270 C/C vs A/A): 0.77 (0.33, 1.79)
- OS HR (95% CI)† [2]: 0.85 (0.29, 2.48)
- PFS HR (95% CI) † [2]: 0.97 (0.43, 2.17)
- OS median, months (95% CI) (p53 rs1042522 Any G): 7.2 (5.4, 15.6+) months
- PFS median, months (95% CI) (p53 rs1042522 Any G): 3.0 (2.1, 3.4) months
- OS HR (95% CI)‡ (p53 rs1042522 Any G vs C/C): 1.28 (0.52, 3.19)
- PFS HR (95% CI) ‡ (p53 rs1042522 Any G vs C/C): 1.10 (0.58, 2.09)
- OS HR (95% CI)† [3]: 1.15 (0.47, 2.81)
- PFS HR (95% CI) † [3]: 0.89 (0.48, 1.65)
- OS median, months (95% CI) (p53 rs1042522 C/C): 8.7 (5.3, 14.8+) months
- PFS median, months (95% CI) (p53 rs1042522 C/C): 2.5 (1.6, 4.4) months
- OS median, months (95% CI) (p53 rs1042522 C/G): 6.3 (4.4, 12.4+) months
- PFS median, months (95% CI) (p53 rs1042522 C/G): 3.0 (1.9, 3.5) months
- OS HR (95% CI)‡ (p53 rs1042522 C/G vs C/C): 1.61 (0.64, 4.06)
- PFS HR (95% CI) ‡ (p53 rs1042522 C/G vs C/C): 1.12 (0.57, 2.21)
- OS HR (95% CI)† [4]: 1.35 (0.55, 3.35)
- PFS HR (95% CI) † [4]: 0.86 (0.45, 1.65)
- PFS median, months (95% CI) (p53 rs1042522 G/G): 2.3 (0.7, 4.6+) months
- OS HR (95% CI)‡ (p53 rs1042522 G/G vs C/C): 0.38 (0.05, 3.11)
- PFS HR (95% CI) ‡ (p53 rs1042522 G/G vs C/C): 1.04 (0.38, 2.86)
- OS HR (95% CI)† [5]: 0.41 (0.05, 3.29)
- PFS HR (95% CI) † [5]: 1.02 (0.37, 2.77)
- HR for OS [6]: 0.39
- HR for PFS [6]: 0.44
- HR for OS [7]: 0.41
- HR for PFS [7]: 0.45
- Disease Control Rate PD (MATE1_OCT019 good): 20 (59%)
- Disease Control Rate SD (MATE1_OCT019 good): 14 (41%)
- Overall Survival Median, months (95% CI) (MATE1_OCT019 good): 8.3 (6.3, 15.6) months
- Progression-free Survival Median, months (95% CI) (MATE1_OCT019 good): 3.4 (2.1, 4.1) months
- Overall Survival HR (95% CI) multivariate (MATE1_OCT019 good vs poor): 0.41 (0.16, 1.04)
- Overall Survival HR (95% CI) univariate (MATE1_OCT019 good vs poor): 0.39 (0.15, 0.98)
- Progression-free Survival HR (95% CI) multivariate (MATE1_OCT019 good vs poor): 0.45 (0.23, 0.88)
- Progression-free Survival HR (95% CI) univariate (MATE1_OCT019 good vs poor): 0.44 (0.22, 0.85)
- Disease Control Rate PD (MATE1_OCT019 poor): 11 (92%)
- Disease Control Rate SD (MATE1_OCT019 poor): 1 (8%)
- Overall Survival Median, months (95% CI) (MATE1_OCT019 poor): 4.9 (2.8, 10.7) months
- Progression-free Survival Median, months (95% CI) (MATE1_OCT019 poor): 2.3 (1.2, 2.9) months
- OS [8]: 8.3 months
- PFS [8]: 3.4 months
- OS [9]: 4.9 months
- PFS [9]: 2.3 months
- Disease Control Rate PD (MATE1 rs2289669 A/A): 8 (80%)
- Disease Control Rate SD (MATE1 rs2289669 A/A): 2 (20%)
- Overall Survival Median, months (95% CI) (MATE1 rs2289669 A/A): 4.9 (2.8, 6.5+) months
- Progression-free Survival Median, months (95% CI) (MATE1 rs2289669 A/A): 2.3 (1.2, 3.3) months
- Overall Survival HR (95% CI) multivariate (MATE1 rs2289669 A/A vs G/G): 1.98 (0.56, 6.99)
- Overall Survival HR (95% CI) univariate (MATE1 rs2289669 A/A vs G/G): 2.40 (0.59, 8.37)
- Progression-free Survival HR (95% CI) multivariate (MATE1 rs2289669 A/A vs G/G): 0.92 (0.38, 2.24)
- Progression-free Survival HR (95% CI) univariate (MATE1 rs2289669 A/A vs G/G): 0.94 (0.40, 2.18)
- Disease Control Rate PD (MATE1 rs2289669 Any A): 22 (61%)
- Disease Control Rate SD (MATE1 rs2289669 Any A): 14 (39%)
- Overall Survival Median, months (95% CI) (MATE1 rs2289669 Any A): 8.3 (5.3, 15.6+) months
- Progression-free Survival Median, months (95% CI) (MATE1 rs2289669 Any A): 3.0 (2.1, 3.7) months
- Overall Survival HR (95% CI) multivariate (MATE1 rs2289669 Any A vs G/G): 0.93 (0.33, 2.59)
- Overall Survival HR (95% CI) univariate (MATE1 rs2289669 Any A vs G/G): 1.03 (0.37, 2.83)
- Progression-free Survival HR (95% CI) multivariate (MATE1 rs2289669 Any A vs G/G): 0.53 (0.25, 1.13)
- Progression-free Survival HR (95% CI) univariate (MATE1 rs2289669 Any A vs G/G): 0.56 (0.28, 1.13)
- Disease Control Rate PD (MATE1 rs2289669 G/A): 14 (54%)
- Disease Control Rate SD (MATE1 rs2289669 G/A): 12 (45%)
- OS (MATE1 rs2289669 G/A): 12.4 months
- Overall Survival Median, months (95% CI) (MATE1 rs2289669 G/A): 12.4 (5.7, 15.6+) months
- PFS (MATE1 rs2289669 G/A): 3.4 months
- Progression-free Survival Median, months (95% CI) (MATE1 rs2289669 G/A): 3.4 (2.1, 4.4) months
- Overall Survival HR (95% CI) multivariate (MATE1 rs2289669 G/A vs G/G): 0.59 (0.23, 2.11)
- Overall Survival HR (95% CI) univariate (MATE1 rs2289669 G/A vs G/G): 0.75 (0.26, 2.28)
- Progression-free Survival HR (95% CI) multivariate (MATE1 rs2289669 G/A vs G/G): 0.41 (0.18, 0.94)
- Progression-free Survival HR (95% CI) univariate (MATE1 rs2289669 G/A vs G/G): 0.44 (0.20, 0.93)
- HR for OS [10]: 0.76
- HR for PFS [10]: 0.44
- HR for PFS (MATE1 rs2289669 G/A, multivariate adjusted for liver metastases and adjuvant history): 0.41
- Disease Control Rate PD (MATE1 rs2289669 G/G): 9 (90%)
- Disease Control Rate SD (MATE1 rs2289669 G/G): 1 (10%)
- OS (MATE1 rs2289669 G/G): 8.1 months
- Overall Survival Median, months (95% CI) (MATE1 rs2289669 G/G): 8.1 (5.4, 10.7+) months
- PFS (MATE1 rs2289669 G/G): 2.0 months
- Progression-free Survival Median, months (95% CI) (MATE1 rs2289669 G/G): 2.0 (1.4, 3.4) months
- Disease Control Rate PD (OCT2 rs316019 A/A): 1 (25%)
- Disease Control Rate SD (OCT2 rs316019 A/A): 3 (75%)
- Disease Control Rate PD (OCT2 rs316019 C/A): 6 (67%)
- Disease Control Rate SD (OCT2 rs316019 C/A): 3 (33%)
- Progression-free Survival Median, months (95% CI) (OCT2 rs316019 C/A and A/A combined): 3.0 (1.2, 6.0+) months
- Overall Survival HR (95% CI) multivariate [11]: 1.74 (0.55, 5.51)
- Overall Survival HR (95% CI) univariate [11]: 1.04 (0.38, 2.89)
- Progression-free Survival HR (95% CI) multivariate [11]: 1.32 (0.58, 3.02)
